Reference: patent US12162867B2, “Inhibitors of RNA helicase DHX9 and uses thereof” (ACCENT THERAPEUTICS, INC., priority 2022, dated 2024)

What follows are molecules tested on circBRIP1 in HCT116 cells (assay: DHX9 circBRIP1 cellular target engagement SYBR Green assay (qPCR)). Conditions: Homo sapiens, HCT-116, circBRIP1, HCT116 cells; SyBr assay (marked ^+); read-out: DHX9 Cellular Target Engagement EC50.
Format: cell-based

Structure (SMILES)	EC50 [nM]
CS(=O)(=O)Nc1cc(Cl)cc(NC(=O)c2cnn(CCCO)c2)c1 [Example 126, N-(3-chloro-5-(methylsulfonamido)phenyl)-1-(3-hydroxypropyl)-1H-pyrazole-4-carboxamide]	> 10000
CS(=O)(=O)Nc1cc(Cl)cc(NC(=O)c2cnn(C3CC4(CNC4)C3)c2)c1 [Example 146]	> 10000
CN(C)C(=O)c1cccnc1-c1csc(C(=O)Nc2cc(Cl)cc(NS(C)(=O)=O)c2)c1 [Example 222]	200
CC1(C)CC(n2cc(C(=O)Nc3cc(Cl)cc(NS(C)(=O)=O)c3)cn2)CCN1 (centres unmarked) [Example 315]	> 10000
CN1CCN(c2cnc(-n3cc(C(=O)Nc4cc(Cl)cc(NS(C)(=O)=O)c4)cn3)c(OCc3cccnc3)c2)CC1=O [Example 193]	> 10000
CS(=O)(=O)Nc1cc(Cl)cc(NC(=O)c2cnn([C@@H]3CC[C@H]3O)c2)c1 (single isomer, unassigned) [Example 306a]	> 10000
CS(=O)(=O)Nc1cc(Cl)cc(NC(=O)c2cnn([C@H]3CC[C@H](O)CC3)c2)c1 (single isomer, unassigned) [Example 154]	> 10000
CS(=O)(=O)Nc1cc(Cl)cc(NC(=O)c2cnn(-c3ncccc3OCc3cccc(O)c3)c2)c1 [Example 179]	997
CS(=O)(=O)Nc1cc(Cl)cc(NC(=O)c2cc3ccncc3s2)c1 [Example 230]	7250
CN1CCN(c2ccc(-n3cc(C(=O)Nc4cc(Br)cc(NS(C)(=O)=O)c4)cn3)nc2)CC1=O [Example 88]	> 10000
CS(=O)(=O)Nc1cc(Cl)cc(NC(=O)c2cc(CN)n(-c3ccccn3)c2)c1 [Example 181]	2090
Cn1cc(C(=O)Nc2cc(Cl)cc(NS(C)(=O)=O)c2)cc1-c1ncc(F)cc1OCc1cnco1 [Example 268]	182
CS(=O)(=O)Nc1cc(Cl)cc(NC(=O)c2cnn(-c3ccc(N4CCCC4=O)cn3)c2)c1 [Example 90]	1060
Cc1cccnc1-c1csc(C(=O)Nc2cc(F)cc(NS(C)(=O)=O)c2)c1 [Example 334]	251
CS(=O)(=O)Nc1cc(Cl)cc(NC(=O)c2cc(-c3ccc(N4CC5(COC5)C4)cn3)n(CC(F)(F)F)c2)c1 [Example 278]	251
CS(=O)(=O)Nc1cc(Cl)cc(NC(=O)c2cnn(C3CC4(C3)CN(CC(F)(F)F)C4)c2)c1 [Example 312]	9970
CS(=O)(=O)Nc1cc(Cl)cc(NC(=O)c2cnn(-c3ncccc3OCc3ccccn3)c2)c1 [Example 63]	2430
CS(=O)(=O)Nc1cc(Cl)cc(NC(=O)c2cc(-c3ncccc3CC(=O)N3CCC3)cs2)c1 [Example 382]	640
CS(=O)(=O)Nc1cc(F)cc(NC(=O)c2c[nH]c(Br)c2)c1 [Example 2]	> 30000

Structure (SMILES)	EC50 [nM]
CS(=O)(=O)Nc1cc(Cl)cc(NC(=O)c2cnn(-c3ncccc3-c3cncnc3)c2)c1 [Example 387]	> 10000
CS(=O)(=O)Nc1cc(Cl)cc(NC(=O)c2cc(N3CCNCC3)cs2)c1 [Example 244]	> 10000
CS(=O)(=O)Nc1cc(Br)cc(NC(=O)c2cnn(-c3ccccc3C(O)C(F)(F)F)c2)c1 (centres unmarked) [Example 103, N-(3-bromo-5-(methylsulfonamido)phenyl)-1-(2-(2,2,2-trifluoro-1-hydroxyethyl)phenyl)-1H-pyrazole-4-carboxamide]	5310
CS(=O)(=O)Nc1cc(Cl)cc(NC(=O)c2cnn(-c3ncccc3OCc3nccs3)c2)c1 [Example 205]	841
CN1CC2(CC(n3cc(C(=O)Nc4cc(Cl)cc(NS(C)(=O)=O)c4)cn3)C2)C1 [Example 311]	3980
CN1CCC(n2cc(C(=O)Nc3cc(Cl)cc(NS(C)(=O)=O)c3)cn2)CC1=O (centres unmarked) [Example 307]	> 10000
CS(=O)(=O)Nc1cc(I)cc(NC(=O)c2cc(-c3ccccc3)cs2)c1 [Example 16]	3510
CS(=O)(=O)Nc1cc(Cl)cc(NC(=O)c2cnn(-c3ccc(N4CCn5ccnc5C4)cn3)c2)c1 [Example 192]	3600
CS(=O)(=O)Nc1cc(Cl)cc(NC(=O)c2cnn([C@H]3CCC[C@H](O)C3)c2)c1 (single isomer, unassigned) [Example 152a]	> 10000
Cc1cccnc1-n1cc(C(=O)Nc2cc(Cl)cc(NS(C)(=O)=O)c2)cn1 [Example 54]	953
Cc1cc(C(=O)Nc2cc(Cl)cc(NS(C)(=O)=O)c2)cn1-c1ncc(N2CCOCC2)cc1F [Example 320]	96.1
CS(=O)(=O)Nc1cc(Cl)cc(NC(=O)c2cc3ccc(F)cc3s2)c1 [Example 294]	> 10000
CS(=O)(=O)Nc1cc(Cl)cc(NC(=O)c2cc(-c3ccccc3)co2)c1 [Example 7]	24200
Cc1cc(C(=O)Nc2cc(Cl)cc(NS(C)(=O)=O)c2)cn1-c1ccc(N2CCS(=O)(=O)CC2)cn1 [Example 285]	503
CCS(=O)(=O)Nc1cc(Cl)cc(NC(=O)c2cc(-c3ncc(F)cn3)cs2)c1 [Example 343]	189
CS(=O)(=O)Nc1cc(Br)cc(NC(=O)c2cc(Cc3ccc[nH]3)cs2)c1 [Example 104, 4-((1H-pyrrol-2-yl)methyl)-N-(3-bromo-5-(methylsulfonamido)phenyl)-thiophene-2-carboxamide]	5490
CS(=O)(=O)Nc1cc(Cl)cc(NC(=O)c2cnn(-c3cc(N4CCNCC4)ccn3)c2)c1 [Example 147]	834
CS(=O)(=O)Nc1cc(Cl)cc(NC(=O)c2cc3ncccc3s2)c1 [Example 289]	6550
CS(=O)(=O)Nc1cc(Cl)cc(NC(=O)c2cnn(C3CCN(CC(F)(F)F)CC3)c2)c1 [Example 316]	4920

Same assay, conditions: Homo sapiens, HCT-116, circBRIP1, HCT116 cells; ^+ SyBr assay was used; read-out: DHX9 Cellular Target Engagement EC50

Structure (SMILES)	EC50 [nM]
CS(=O)(=O)Nc1cc(Cl)cc(NC(=O)c2cc(C(=O)N3CCN(CC(F)(F)F)CC3)n(-c3ccccn3)c2)c1 [Example 649]	9930
Cn1cc(C(=O)Nc2cc(Cl)cc(NS(C)(=O)=O)c2)cc1-c1ncc(Cl)cn1 [Example 577]	153
Cn1cc(C(=O)Nc2cc(Cl)cc(NS(C)(=O)=O)c2)cc1-c1ncccc1Oc1cccnc1 [Example 655]	4520
CN(C)C(=O)c1cccc(OCc2cccc(F)c2)c1-n1cc(C(=O)Nc2cc(Cl)cc(NS(C)(=O)=O)c2)cn1 [Example 717]	> 10000
Cn1cc(C(=O)Nc2cc(Cl)cc(NS(C)(=O)=O)c2)cc1-c1ccc(Cl)cn1 [Example 576]	128
CS(=O)(=O)Nc1cc(Cl)cc(NC(=O)c2cc(-n3cc(F)cn3)cs2)c1 [Example 440]	370
CS(=O)(=O)Nc1cc(Cl)cc(NC(=O)c2cc(C(=O)N3CCN(c4ccccc4)CC3)n(-c3ccccn3)c2)c1 [Example 654]	5310
Cc1cc(C(=O)Nc2cc(Cl)cc(NS(C)(=O)=O)c2)cn1-c1ncc(N2CCOCC2)cc1F [Example 412]	96.1
Cc1cc(C(=O)Nc2cc(Cl)cc(NS(C)(=O)=O)c2)cn1-c1ncc(S(C)(=O)=O)cn1 [Example 656]	239
CSc1cnc(-n2cc(C(=O)Nc3cc(Cl)cc(NS(C)(=O)=O)c3)cc2C)nc1 [Example 658]	425

Same assay, conditions: Homo sapiens, HCT-116, read-out: DHX9 Cellular Target Engagement EC50

Structure (SMILES)	EC50 [nM]
CS(=O)(=O)Nc1cc(F)cc(NC(=O)c2cc(Br)cs2)c1 [Example 71, 4-bromo-N-(3-fluoro-5-(methylsulfonamido)phenyl)thiophene-2-carboxamide]	26300
CS(=O)(=O)Nc1cc(Cl)cc(NC(=O)c2cnn(-c3ncccc3COc3ccccc3)c2)c1 [Example 167, N-(3-chloro-5-(methylsulfonamido)phenyl)-1-(3-(phenoxymethyl)pyridin-2-yl)-1H-pyrazole-4-carboxamide]	1750
